Reference: US8680059B2, “Oligopeptide acetate and formulations thereof” (Biotempt B.V., priority 1998, dated 2014)
Values joined by “and” are separate entries in the source; they are usually repeats but may differ in a detail not shown here. Equal entries are not always repeated.

System: BALB/c mice injected i.p. with LPS (E. coli 026:B6)
Test: LPS-induced septic shock (endotoxin model) in BALB/c mice
Type: in vivo, mouse
Design: key to Sickness score of individual mouse: 0: No abnormalities.; 1: Percolated fur, but no detectable behavior differences compared to normal mice.; 2: Percolated fur, huddle reflex, responds to stimuli (such as tap on cage), just as active during handling as healthy mouse.; 3: Slower response to tap on cage, passive or docile when handled, but still curious when alone in a new setting.; 4: Lack of curiosity, little or no response to stimuli, quite immobile.; 5: Labored breathing, inability or slow to self-right after being rolled onto back (moribund, sacrificed).; Dead
Conditions: for number of mice with sickness score 1 / number of mice with sickness score 2: peptide twice (t = 2 hr and 24 hr) 5 mg/kg; for Survival %: group of 6, 48 hrs
Method: Mice used in sepsis or septic shock experiments: Female BALB/c mice of 8-12 weeks of age were used for all experiments. The animals were bred in our facility under specific pathogen-free conditions according to the protocols described in the Report of European Laboratory Animal Science Associations (FELASA) Working group on Animal Health (Laboratory Animals 28: 1-24, 1994).
Injection protocols: For the endotoxin model, BALB/c mice were injected i.p. with 150-300 μg LPS (E. coli 026:B6; Difco Lab., Detroit, Mich., USA). Control groups were treated with PBS i.p. only. To test the effect of peptides, they were dissolved in PBS and injected i.p. at predetermined points in time after LPS treatment.
Mice were scored for sickness severity using the following measurement scheme: • 0 No abnormalities. • 1 Percolated fur, but no detectable behavior differences compared to normal mice. • 2 Percolated fur, huddle reflex, responds to stimuli (such as tap on cage), just as active during handling as healthy mouse. • 3 Slower response to tap on cage, passive or docile when handled, but still curious when alone in a new setting. • 4 Lack of curiosity, little or no response to stimuli, quite immobile. • 5 Labored breathing, inability or slow to self-right after being rolled onto back (moribund, sacrificed). • D Dead […]
A comparative trial was set up to compare peptide MTR and SEQ ID NO:2. The comparative trial comprised 6 groups of 6 animals; two groups (1A and 1B) receiving placebo (PBS), one group (2) peptide MTR (source Pepscan, Lelystad, NL), one group (3) receiving peptide MTR (source Ansynth), one group (4) receiving peptide SEQ ID NO:2 (source Pepscan) and one group peptide SEQ ID NO:2 (source Ansynth). Peptide/placebo in these groups was administered 2 hours after LPS. LPS (source) was used at 10-11 mg/kg. Sickness scores were done at 0, 2, 22 26 42 and 48 hours after LPS injection.

[1] = 5 mg/kg i.p. given both early (2 hours) or late (24 hours)

## AQGV [tetrapeptide derived from human chorionic gonadotropin, alanine replacement of LQGV]
[1]
  clinical signs of shock at 84 hours after LPS-treatment: no remaining clinical signs of shock
  survival at 84 hours after LPS-treatment: 100%
LPS dose 10.5, t = 24 hr
  number of mice with sickness score 1: 2
  number of mice with sickness score 2: 3
LPS dose 10.5, t = 48 hr
  number of mice with sickness score 1: 5
LPS dose 11, t = 24 hr
  number of mice with sickness score 1: 2
  number of mice with sickness score 2: 4
LPS dose 11, t = 48 hr
  number of mice with sickness score 1: 6
Single injection 5 mg/kg 2 hours after LPS (300 μg), time 0 hours
  % survival: 100%
Single injection 5 mg/kg 2 hours after LPS, time 14 hours
  % survival: 100%
Single injection 5 mg/kg 2 hours after LPS, time 24 hours
  % survival: 100%
Single injection 5 mg/kg 2 hours after LPS, time 48 hours
  % survival: 100%
Single injection 5 mg/kg 2 hours after LPS, time 84 hours
  % survival: 100%
Single injection 5 mg/kg 24 hours after LPS (300 μg), time 0 hours
  % survival: 100%
Single injection 5 mg/kg 24 hours after LPS, time 14 hours
  % survival: 100%
Single injection 5 mg/kg 24 hours after LPS, time 24 hours
  % survival: 100%
Single injection 5 mg/kg 24 hours after LPS, time 48 hours
  % survival: 100%
Single injection 5 mg/kg 24 hours after LPS, time 84 hours
  % survival: 100%
Source Ansynth (#Ansynth 12/46) 2 hours after LPS 10-11 mg/kg, 0 hrs (before peptide)
  Sickness score of individual mouse: 0
Source Ansynth (#Ansynth 12/46) 2 hours after LPS 10-11 mg/kg, 2 hrs (at peptide administration)
  Sickness score of individual mouse: 2
Source Ansynth (#Ansynth 12/46) 2 hours after LPS 10-11 mg/kg, 22 hrs
  Sickness score of individual mouse: 3 (2×) and 2 (3×) and 4
Source Ansynth (#Ansynth 12/46) 2 hours after LPS 10-11 mg/kg, 26 hrs
  Sickness score of individual mouse: 3 (2×) and 2 (3×) and 4
Source Ansynth (#Ansynth 12/46) 2 hours after LPS 10-11 mg/kg, 42 hrs
  Sickness score of individual mouse: 2 and 3 and 1 (3×) and 5
Source Ansynth (#Ansynth 12/46) 2 hours after LPS 10-11 mg/kg, 48 hrs
  Sickness score of individual mouse: 1 (5×) and dead
Source Ansynth (#Ansynth 12/46) 2 hours after LPS 10-11 mg/kg
  Survival %: 83%
Source Pepscan (#970/#971) 5 mg/kg 2 hours after LPS 10-11 mg/kg, 0 hrs (before peptide)
  Sickness score of individual mouse: 0
Source Pepscan (#970/#971) 5 mg/kg 2 hours after LPS 10-11 mg/kg, 2 hrs (at peptide administration)
  Sickness score of individual mouse: 2
Source Pepscan (#970/#971) 5 mg/kg 2 hours after LPS 10-11 mg/kg, 22 hrs
  Sickness score of individual mouse: 2 (4×) and 3 and 4
Source Pepscan (#970/#971) 5 mg/kg 2 hours after LPS 10-11 mg/kg, 26 hrs
  Sickness score of individual mouse: 2 (3×) and 3 (2×) and 5
Source Pepscan (#970/#971) 5 mg/kg 2 hours after LPS 10-11 mg/kg, 42 hrs
  Sickness score of individual mouse: 2 (5×) and dead
Source Pepscan (#970/#971) 5 mg/kg 2 hours after LPS 10-11 mg/kg, 48 hrs
  Sickness score of individual mouse: 2 (3×) and 1 (2×)
Source Pepscan (#970/#971) 5 mg/kg 2 hours after LPS 10-11 mg/kg
  Survival %: 83%
